Source: US9884832B2 (priority 2011, dated 2018)
Like-named read-outs stand apart in the source and are kept apart here.

Columns and labels:
[1] = molecular target: AM2 V27A (valine→alanine mutation at residue 27 in the M2 protein) (Influenza A virus, UniProt P0DOF5, V27A); assay type: cell-based, influenza virus A/Udorn/72
[2] = molecular target: AM2 S31N (serine→asparagine mutation at residue 31 in the M2 protein) (Influenza A virus, UniProt P0DOF5, S31N); assay type: cell-based, influenza virus A/Udorn/72

Row | Compound | V27A OOcyte Inhibition at 100 uM (%) [1] | S31N OOcyte Inhibition at 100 uM (%) [2] | V27A OOcyte Inhibition at 100 uM (%) ([1]; pH 5.5) | S31N OOcyte Inhibition at 100 uM (%) ([2]; pH 5.5)
1 | Cc1ccc(C(C)NC23CC4CC(CC(C4)C2)C3)s1 (stereo not shown) [Example 97a, N-(1-(5-methylthiophen-2-yl)ethyl)adamantan-1-amine] | B (key: (A)=31-95%; (B)=0-30%) | B (key: (A)=31-95%; (B)=0-30%) | – | –
2 | F[B-](F)(F)C[NH2+]C12CC3CC(CC(C3)C1)C2 [Example 204a, N-[(Trifluoro-4-boranyl)methyl]adamantan-1-aminium] | B (key: (A)=31-95%; (B)=0-30%) | B (key: (A)=31-95%; (B)=0-30%) | – | –
3 | Oc1ccc(CNC23CC4CC(CC(C4)C2)C3)cc1 [Example 9, 4-(Adamantan-1-ylaminomethyl)-phenol] | – | – | B (key: (A)=31-95%; (B)=0-30%) | A (key: (A)=31-95%; (B)=0-30%)
4 | Clc1c(CNC23CC4CC(CC(C4)C2)C3)nc2sccn12 [Example 87, Adamantan-1-yl-(5-chloro-imidazo[2,1-b]thiazol-6-ylmethyl)-amine] | – | – | B (key: (A)=31-95%; (B)=0-30%) | B (key: (A)=31-95%; (B)=0-30%)
5 | CSc1ccc(CNC23CC4CC(CC(C4)C2)C3)c(SC)c1 [Example 55, Adamantan-1-yl-(2,4-bis-methylsulfanyl-benzyl)-amine] | – | – | B (key: (A)=31-95%; (B)=0-30%) | B (key: (A)=31-95%; (B)=0-30%)
6 | CCc1ccc(CNC23CC4CC(CC(C4)C2)C3)s1 [Example 98a, N-((5-ethylthiophen-2-yl)methyl)adamantan-1-amine] | B (key: (A)=31-95%; (B)=0-30%) | A (key: (A)=31-95%; (B)=0-30%) | – | –
7 | COc1ccc(C(C)NC23CC4CC(CC(C4)C2)C3)cc1 (stereo not shown) [Example 11a, N-(1-(4-methoxyphenyl)ethyl)adamantan-1-amine] | A (key: (A)=31-95%; (B)=0-30%) | A (key: (A)=31-95%; (B)=0-30%) | – | –
8 | O=C(Oc1ccc(CNC23CC4CC(CC(C4)C2)C3)cc1)C1CC1 [Example 34, Cyclopropanecarboxylic acid 4-(adamantan-1-ylaminomethyl)-phenyl ester] | – | – | B (key: (A)=31-95%; (B)=0-30%) | B (key: (A)=31-95%; (B)=0-30%)
9 | c1csc(-c2cc(CNC34CC5CC(CC(C5)C3)C4)no2)c1 [Example 142a, N-((5-(thiophen-2-yl)isoxazol-3-yl)methyl)adamantan-1-amine] | B (key: (A)=31-95%; (B)=0-30%) | A (key: (A)=31-95%; (B)=0-30%) | – | –
10 | CC(=O)Oc1ccc(CNC23CC4CC(CC(C4)C2)C3)c(O)c1 [Example 60, Acetic acid 4-(adamantan-1-ylaminomethyl)-3-hydroxy-phenyl ester] | – | – | B (key: (A)=31-95%; (B)=0-30%) | A (key: (A)=31-95%; (B)=0-30%)
11 | Clc1ccc(/C=C/CNC23CC4CC(CC(C4)C2)C3)cc1 [Example 200a, N-((E)-3-(4-chlorophenyl)allyl)adamantan-1-amine] | B (key: (A)=31-95%; (B)=0-30%) | A (key: (A)=31-95%; (B)=0-30%) | – | –
12 | CCSc1ccc(CNC23CC4CC(CC(C4)C2)C3)cc1 [Example 12a, N-(4-(ethylthio)benzyl)adamantan-1-amine] | B (key: (A)=31-95%; (B)=0-30%) | A (key: (A)=31-95%; (B)=0-30%) | – | –
13 | c1cn2cc(CNC34CC5CC(CC(C5)C3)C4)nc2s1 [Example 86, Adamantan-1-yl-imidazo[2,1-b]thiazol-6-ylmethyl-amine] | – | – | B (key: (A)=31-95%; (B)=0-30%) | A (key: (A)=31-95%; (B)=0-30%)
14 | Oc1cc(F)c(CNC23CC4CC(CC(C4)C2)C3)c(F)c1 [Example 69, 4-(Adamantan-1-ylaminomethyl)-3,5-difluoro-phenol] | – | – | A (key: (A)=31-95%; (B)=0-30%) | B (key: (A)=31-95%; (B)=0-30%)
15 | CC(C)(C)C1CCC(NCc2ccc(O)cc2O)CC1 (stereo not shown) [Example 109, 4-[(4-tert-Butyl-cyclohexylamino)-methyl]-benzene-1,3-diol] | – | – | A (key: (A)=31-95%; (B)=0-30%) | B (key: (A)=31-95%; (B)=0-30%)
16 | c1cc(CNC23CC4CC(CC(C4)C2)C3)ccn1 [Example 73, Adamantan-1-yl-pyridin-4-ylmethyl-amine] | – | – | B (key: (A)=31-95%; (B)=0-30%) | B (key: (A)=31-95%; (B)=0-30%)
17 | O=[N+]([O-])c1ccccc1CNC12CC3CC(CC(C3)C1)C2 [Example 30, Adamantan-1-yl-(2-nitro-benzyl)-amine] | – | – | B (key: (A)=31-95%; (B)=0-30%) | B (key: (A)=31-95%; (B)=0-30%)
18 | Oc1ccc(CNC23CC4CC(CC(C4)C2)C3)cc1O [Example 45, 4-(Adamantan-1-ylaminomethyl)-benzene-1,2-diol] | – | – | A (key: (A)=31-95%; (B)=0-30%) | B (key: (A)=31-95%; (B)=0-30%)
19 | CC1(C)CCC(NCc2ccc(O)cc2O)CC1 [Example 108, 4-[(4,4-Dimethyl-cyclohexylamino)-methyl]-benzene-1,3-diol] | – | – | B (key: (A)=31-95%; (B)=0-30%) | B (key: (A)=31-95%; (B)=0-30%)
20 | OCc1cc(Br)ccc1CNC12CC3CC(CC(C3)C1)C2 [Example 52a, [2-(Adamantan-1-ylaminomethyl)-5-bromo-phenyl]methanol] | B (key: (A)=31-95%; (B)=0-30%) | B (key: (A)=31-95%; (B)=0-30%) | – | –
21 | Oc1ccc(CNC23CC4CC(CC(C4)C2)C3)c(O)c1 [Example 46, 4-(Adamantan-1-ylaminomethyl)-benzene-1,3-diol] | – | – | A (key: (A)=31-95%; (B)=0-30%) | A (key: (A)=31-95%; (B)=0-30%)
22 | CS(=O)(=O)c1ccc(CNC23CC4CC(CC(C4)C2)C3)cc1 [Example 25, Adamantan-1-yl-(4-methanesulfonyl-benzyl)-amine] | – | – | B (key: (A)=31-95%; (B)=0-30%) | B (key: (A)=31-95%; (B)=0-30%)
23 | c1csc(-c2ncc(CNC34CC5CC(CC(C5)C3)C4)cn2)c1 [Example 61a, N-((2-(thiophen-2-yl)pyrimidin-5-yl)methyl)adamantan-1-amine] | B (key: (A)=31-95%; (B)=0-30%) | A (key: (A)=31-95%; (B)=0-30%) | – | –
24 | Oc1cccc(CNC23CC4CC(CC(C4)C2)C3)c1 [Example 31, 3-(Adamantan-1-ylaminomethyl)-phenol] | – | – | A (key: (A)=31-95%; (B)=0-30%) | B (key: (A)=31-95%; (B)=0-30%)
25 | Nc1ncc(CNC23CC4CC(CC(C4)C2)C3)cn1 [Example 75, 5-(Adamantan-1-ylaminomethyl)-pyrimidin-2-ylamine] | – | – | B (key: (A)=31-95%; (B)=0-30%) | B (key: (A)=31-95%; (B)=0-30%)
26 | c1cc(CNC23CC4CC(CC(C4)C2)C3)co1 [Example 66a, Adamantan-1-yl-furan-3-ylmethyl-amine] | B (key: (A)=31-95%; (B)=0-30%) | B (key: (A)=31-95%; (B)=0-30%) | – | –
